Laboratory results from PubChem BioAssay AID1361 (SRMLSC, 2008).
Calls of active or inactive are those of the source. The rule behind the calls is not given here.

Experiment: mitochondrial fusion inhibitors, confirmation, cell-based, chemical genetic, wild-type and mutant (AID 1361)
Conditions: Cell-based mitochondrial fusion phenotype, imaging
[1] = mutant cells, measured here: mutant cell line IC50

SMILES	IC50 (WT cells)	IC50 [1]
Cc1ccc(CNCC(O)(c2ccccc2)c2ccc(Cl)cc2)cc1 (configuration not stated)	18.7 µM	24.9 µM
O=C(CCn1nnc2ccccc21)Nc1nnc(Cc2ccccc2)s1	> 25 µM (inactive)	> 25 µM
CCc1nnc(NC(=O)c2cccc(C(=O)Nc3nnc(CC)s3)n2)s1	23.8 µM	> 25 µM
COc1ccccc1NC(=O)CC1S/C(=N/N=C2\CCCc3ccccc32)NC1=O (configuration not stated)	19.6 µM	> 25 µM
CC1CN(c2oc(Cc3cccc4ccccc34)nc2C#N)CC(C)O1 (configuration not stated)	> 25 µM (inactive)	> 25 µM
Cc1cccc(C(=O)NC(C(=O)Nc2nc(-c3ccccn3)cs2)C(C)C)c1 (configuration not stated)	20.8 µM	> 25 µM
CCCCCOc1ccc2oc(=O)c3c(c2c1)CCCN3C(=O)CN1CCCC(C(=O)OCC)C1 (configuration not stated)	> 25 µM (inactive)	> 25 µM
Cc1ccc(/C(=N\O)c2oc3c(C)c4oc(=O)cc(C)c4cc3c2C)cc1	7.3 µM	> 25 µM
CC(C)(O)[C@H]1O[C@H]2CC[C@@]3(C)[C@@](O)(CC[C@H]4Cc5c([nH]c6ccccc56)[C@@]43C)C2=CC1=O	11.2 µM	> 25 µM
Cc1ccc(/C=C/C(=O)N2CCC(Cc3ccccc3)CC2)cc1	15.1 µM	> 25 µM
CSc1ccc(Cl)c(C(=O)NCCOc2cc(C)ccc2C(C)C)c1	12.9 µM	> 25 µM
Cc1oc(-c2ccccc2)[n+]([O-])c1C	> 25 µM (inactive)	> 25 µM
Cc1c(C)c2cc(Cl)c(O)c(CN3CCCC(C)C3)c2oc1=O (configuration not stated)	> 25 µM (inactive)	> 25 µM
CCOc1ccc(-n2c(SCC(=O)Nc3cc(C)on3)nnc2-c2c[nH]c3ccccc23)cc1	> 25 µM (inactive)	> 25 µM
Cc1cccc(OCC(=O)Nc2nc3ccc([N+](=O)[O-])cc3s2)c1C	> 25 µM (inactive)	> 25 µM
Clc1cccc(N=C2NN=C(c3ccc4c(c3)OCCO4)CS2)c1	15.9 µM	> 25 µM
O=C(CCn1nc(-c2ccccc2)c2ccccc2c1=O)NCC1CCCO1 (configuration not stated)	> 25 µM (inactive)	> 25 µM
Cc1c(C)c2ccc(OC3CCCCC3=O)cc2oc1=O (configuration not stated)	> 25 µM (inactive)	> 25 µM
Cc1ccc(-n2cc(CNCCc3cscn3)c(-c3ccc(F)cc3)n2)cc1	> 25 µM (inactive)	> 25 µM
Cn1c(=O)c2c(nc(N3CCCCCC3)n2Cc2cccc3ccccc23)n(C)c1=O	10 µM	> 25 µM
O=C(COC(=O)c1ccc([N+](=O)[O-])s1)Nc1ncc(C(F)(F)F)cc1Cl	18.3 µM	> 25 µM

SMILES	IC50 (WT cells)	IC50 [1]
CCOc1ccccc1-n1c(CN2CCN(C(=O)c3ccco3)CC2)nc2ccccc2c1=O	> 25 µM (inactive)	> 25 µM
Cc1ccc(Cn2ncc3c(N4CCN(c5ccccc5C)CC4)ncnc32)cc1	7.78 µM	24.7 µM
CC[n+]1c(SC)ccc2cc(OC)ccc21	11.5 µM	> 25 µM
Cc1oc(-c2ccccc2F)nc1CN1CCC(C(=O)NCCC2=CCCCC2)CC1	> 25 µM (inactive)	> 25 µM
O=C(O)Cn1c(CC(=O)N2CCCC2)nc2ccccc21	> 25 µM (inactive)	> 25 µM
COc1ccc(N2CCN(CCNC(=O)c3nnc(Cc4c(F)cccc4Cl)o3)CC2)cc1	> 25 µM (inactive)	> 25 µM
CCC(C)(C)NC(=O)C(c1ccc(C)cc1)N(Cc1cccs1)C(=O)c1ccc2c(c1)OCCO2 (configuration not stated)	14.1 µM	> 25 µM
N#CCCN(CCC#N)c1nnc(-c2ccccc2)s1	> 25 µM (inactive)	> 25 µM
CCCCC(c1nnnn1CC1CCCO1)N1CCN(c2cc(Cl)ccc2C)CC1 (configuration not stated)	21.6 µM	> 25 µM
CCn1ccnc1CN1CCc2c([nH]c3ccccc23)C1CC(C)C (configuration not stated)	> 25 µM (inactive)	> 25 µM
O/N=C(\c1ccc(Cl)cc1Cl)c1ncc(C(F)(F)F)cc1Cl	20.9 µM	> 25 µM
CC(C)CNS(=O)(=O)c1ccc(S(=O)(=O)N2CCCN(Cc3ccccc3)C2)cc1	> 25 µM (inactive)	> 25 µM
O=C(COC(=O)CC(c1ccccc1)c1ccccc1)NCc1ccc(Cl)cc1	14.7 µM	> 25 µM
COc1ccccc1Nc1ncnc2nc[nH]c12	> 25 µM (inactive)	> 25 µM
Cc1c(N2C(=O)c3cccc4cccc(c34)C2=O)c(=O)n(-c2ccccc2)n1C	> 25 µM (inactive)	> 25 µM
O=C(Nc1ccc(F)cc1)N1CC2CC(C1)c1cccc(=O)n1C2 (configuration not stated)	> 25 µM (inactive)	> 25 µM
COc1ccc(OC)c2c(N)c(C#N)c(C(F)(F)C(F)(F)F)nc12	> 25 µM (inactive)	> 25 µM
COc1ccc(/C=N/N(Cc2ccccc2)c2ccccc2)cc1O	11.6 µM	> 25 µM
CCSc1nnc(NC(=O)COc2ccc3ccccc3c2)s1	> 25 µM (inactive)	> 25 µM
Cc1cccc2nc(-c3ccccc3)nc(N3CCC(O)(c4ccc(Cl)cc4)CC3)c12	4.04 µM	> 25 µM
